Assay results: paper PMC10535864, “Novel Aminopyrimidine-2,4-diones, 2-Thiopyrimidine-4-ones, and 6-Arylpteridines as Dual-Target Inhibitors of BRD4/PLK1: Design, Synthesis, Cytotoxicity, and Computational Studies” (Pharmaceuticals, 2023)

Columns and labels:
[1] = test system: MDA-MB-231 breast cancer cells; test: MTT cytotoxicity assay, MDA-MB-231; format: cell-based; details: MDA-MB-231, MTT; for IC50: mean of three independent experiments ± SD, read-out: IC50 Value MDA-MB-231
Description: (§1) All newly synthetic compounds were tested for cytotoxicity using a six-dose MTT colorimetric assay on three cancer cell lines; namely, breast cancer cells (MDA-MB-231), colorectal adenocarcinoma cells (HT-29) and renal cancer cells (U-937). […] However, renal cancer cells (U-937) were discovered to be the least sensitive.
(§2) Using a six-dose MTT colorimetric assay, all new synthetic compounds were tested for cytotoxicity against three cancer cell lines: MDA-MB-231 breast cancer cells, HT-29 colorectal adenocarcinoma cells, and U-937 renal cancer cells. […] These cell lines were supplied by ATCC (American Type Culture Collection) via the Holding company for biological products and vaccines (VACSERA, Cairo, Egypt). The reference control used was Methotrexate. Detailed descriptions of the MTT colorimetric assay’s protocol can be found in the Supplementary file.
(§3) 1.1.In-vitro cytotoxicity screening
(§4) Using a six-dose MTT colorimetric assay, allnew synthetic compounds were tested for cytotoxicity against three cancer cell lines: MDA-MB-231 breast cancer cells,HT-29 colorectal adenocarcinoma cells, and U-937 renal […]
(§5) The cell lines were supplied by ATCC (American Type Culture Collection). The reference control used was Methotrexate. The cytotoxic activities of the examined compounds were quantified by inoculating a 96-well tissue culture plate with 1 X 10^5 cells / mL (100 uL/well) and incubating it at 37°C for 24 hours to develop a complete monolayer sheet. After forming a confluent sheet of cells, the growth medium was decanted from 96-well microtiter plates, and the cell monolayer was washed twice with wash media. Two-fold dilutions of tested samples were made in RPMI medium with 2% serum (maintenance medium), and 0.1 mL of each dilution was tested in different wells, with three wells serving as controls and receiving only maintenance medium. Following that, the plate was incubated at 37°C and examined. Cells were investigated for any physical signs of toxicity, such as partial or complete monolayer loss, rounding, shrinkage, or cell granulation. MTT solution was prepared (5mg/ml in PBS) (BIO BASIC CANADA INC), and 20 uL MTT solution was added to each well. After 5 minutes on a shaking table at150 rpm to thoroughly mix the MTT into the media, it was incubated (37°C, 5% CO2) for 4 hours to allow the MTT to be metabolized. Formazan (MTT metabolic product) was resuspended in 200 uL DMSO and shaken at 150 rpm for 5 minutes to thoroughly mix the formazan into the solvent. The optical density was measured at 560 nm, and the background was subtracted at 620 nm. Finally, the IC50 of the test compound in comparison to the reference was calculated using the GraphPad Prism software. […]

[2] = test system: HT-29 colorectal adenocarcinoma cells; test: MTT cytotoxicity assay, HT-29; format: cell-based; details: MTT; for IC50: mean of three independent experiments ± SD, read-out: IC50 Value HT-29
Description: as §1, §2, §3, §4, §5

[3] = MTT cytotoxicity assay, U-937; format: cell-based; details: Homo sapiens, U-937, U937, MTT;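 note: Six-dose MTT colorimetric assay on cell monolayers, formazan absorbance read at 560 nm with 620 nm background removed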
[4] = test system: U-937 renal cancer cells; test: MTT cytotoxicity assay, U-937; format: cell-based; details: MTT; for IC50: Homo sapiens, U-937, mean of three independent experiments ± SD, read-out: IC50 Value U-937; for Toxicity %: U937;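 for all read-outs here: Six-dose MTT colorimetric assay on cell monolayers, formazan absorbance read at 560 nm with 620 nm background removed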
[5] = MTT cytotoxicity assay, normal Vero cells; format: cell-based; details: African green monkey, normal Vero cells, MTT;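 note: monolayers exposed to two-fold dilutions in 2% serum medium, MTT added for 4 h, formazan in DMSO read at 560 nm minus 620 nm, controls given medium alone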
Description: (§6) Using a six-dose MTT colorimetric assay [44, 66], all new synthetic compounds were tested for cytotoxicity against three cancer cell lines: MDA-MB-231 breast cancer cells, HT-29 colorectal adenocarcinoma cells, and U-937 renal cancer cells. […] These cell lines were supplied by ATCC (American Type Culture Collection) via the Holding company for biological products and vaccines (VACSERA, Cairo, Egypt). The reference control used was Methotrexate.
(§7) Using a six-dose MTT colorimetric assay [44, 66], allnew synthetic compounds were tested for cytotoxicity against three cancer cell lines: MDA-MB-231 breast cancer cells,HT-29 colorectal adenocarcinoma cells, and U-937 renal
(§8) The cell lines were supplied by ATCC (American Type Culture Collection). The reference control used was Methotrexate. The cytotoxic activities of the examined compounds were quantified by inoculating a 96-well tissue culture plate with 1 X 10^5 cells / mL (100 uL/well) and incubating it at 37°C for 24 hours to develop a complete monolayer sheet. After forming a confluent sheet of cells, the growth medium was decanted from 96-well microtiter plates, and the cell monolayer was washed twice with wash media. Two-fold dilutions of tested samples were made in RPMI medium with 2% serum (maintenance medium), and 0.1 mL of each dilution was tested in different wells, with three wells serving as controls and receiving only maintenance medium. Following that, the plate was incubated at 37°C and examined. Cells were investigated for any physical signs of toxicity, such as partial or complete monolayer loss, rounding, shrinkage, or cell granulation. MTT solution was prepared (5mg/ml in PBS) (BIO BASIC CANADA INC), and 20 uL MTT solution was added to each well. After 5 minutes on a shaking table at150 rpm to thoroughly mix the MTT into the media, it was incubated (37C, 5% CO2) for 4 hours to allow the MTT to be metabolized. Formazan (MTT metabolic product) was resuspended in 200 uL DMSO and shaken at 150 rpm for 5 minutes to thoroughly mix the formazan into the solvent. The optical density was measured at 560 nm, and the background was subtracted at 620 nm. Finally, the IC50 of the test compound in comparison to the reference was calculated using the GraphPad Prism software.

[6] = test system: normal Vero cells; test: MTT cytotoxicity assay, normal Vero cells; format: cell-based; details: Vero, MTT;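 note: monolayers exposed to two-fold dilutions in 2% serum medium, MTT added for 4 h, formazan in DMSO read at 560 nm minus 620 nm, controls given medium alone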
Description: as §6, §7, §8

[7] = Homo sapiens, HT-29, HT29, 0.312 uM
[8] = Homo sapiens, HT-29, HT29, 0.625 uM
[9] = Homo sapiens, HT-29, HT29, 1.25 uM
[10] = Homo sapiens, HT-29, HT29, 2.5 uM
[11] = Homo sapiens, HT-29, HT29, 5 uM
[12] = Homo sapiens, HT-29, HT29, 10 uM

## Cn1c(=S)[nH]c(=O)c2nc(-c3ccccc3)c(-c3ccccc3)nc21 [Compound 10, 1-Methyl-6,7-diphenyl-2-thioxo-2,3-dihydropteridin-4(1H)-one]
[1]; Homo sapiens
  IC50: 3.4 ± 0.02 µM
[1]; Homo sapiens, 0.312 uM
  viability at 0.312 µM: 100%
[1]; Homo sapiens, 0.625 uM
  viability at 0.625 µM: 100%
[1]; Homo sapiens, 1.25 uM
  viability at 1.25 µM: 98.8%
[1]; Homo sapiens, 2.5 uM
  viability at 2.5 µM: 54.3%
[1]; Homo sapiens, 5 uM
  viability at 5 µM: 26.3%
[1]; Homo sapiens, 10 uM
  viability at 10 µM: 7.93%
[1]; 0.312 uM
  Toxicity %: 0%
[1]; 0.625 uM
  Toxicity %: 0%
[1]; 1.25 uM
  Toxicity %: 1.197%
[1]; 2.5 uM
  Toxicity %: 45.66%
[1]; 5 uM
  Toxicity %: 73.67%
[1]; 10 uM
  Toxicity %: 92.07%
other
  melting point: 287 °C
[2]; HT29, 0.312 uM
  Toxicity %: 0%
[2]; HT29, 0.625 uM
  Toxicity %: 0%
[2]; HT29, 1.25 uM
  Toxicity %: 2.239%
[2]; HT29, 2.5 uM
  Toxicity %: 18.99%
[2]; HT29, 5 uM
  Toxicity %: 41.09%
[2]; HT29, 10 uM
  Toxicity %: 96.3%
[2]; [7]
  viability at 0.312 µM: 100%
[2]; [8]
  viability at 0.625 µM: 100%
[2]; [9]
  viability at 1.25 µM: 97.8%
[2]; [10]
  viability at 2.5 µM: 81%
[2]; [11]
  viability at 5 µM: 58.9%
[2]; [12]
  viability at 10 µM: 3.7%
[2]; Homo sapiens, HT-29
  IC50: 5.63 ± 0.13 µM
[3]
  viability at 0.312 µM: 99.5%
  viability at 0.625 µM: 99.8%
  viability at 1.25 µM: 99.9%
  viability at 2.5 µM: 95.8%
  viability at 5 µM: 85%
  viability at 10 µM: 34.9%
[4]
  IC50: 8.37 ± 0.23 µM
[4]; 0.312 uM
  Toxicity %: 0.5447%
[4]; 0.625 uM
  Toxicity %: 0.1634%
[4]; 1.25 uM
  Toxicity %: 0.05447%
[4]; 2.5 uM
  Toxicity %: 4.248%
[4]; 5 uM
  Toxicity %: 15.03%
[4]; 10 uM
  Toxicity %: 65.14%

## CN(Cc1cnc2nc(N)nc(N)c2n1)c1ccc(C(=O)N[C@@H](CCC(=O)O)C(=O)O)cc1 [Methotrexate, reference compound]
[1]; Homo sapiens
  IC50: 2.79 ± 0.06 µM
[1]; Homo sapiens, 0.078 uM
  viability at 0.078 µM: 99.9%
[1]; Homo sapiens, 0.156 uM
  viability at 0.156 µM: 99.7%
[1]; Homo sapiens, 0.312 uM
  viability at 0.312 µM: 99.6%
[1]; Homo sapiens, 0.625 uM
  viability at 0.625 µM: 99.8%
[1]; Homo sapiens, 1.25 uM
  viability at 1.25 µM: 81.5%
[1]; Homo sapiens, 2.5 uM
  viability at 2.5 µM: 42.4%
[1]; Homo sapiens, 5 uM
  viability at 5 µM: 19.5%
[1]; Homo sapiens, 10 uM
  viability at 10 µM: 11.8%
[1]; 0.078 uM
  Toxicity %: 0.0883%
[1]; 0.156 uM
  Toxicity %: 0.2649%
[1]; 0.312 uM
  Toxicity %: 0.3532%
[1]; 0.625 uM
  Toxicity %: 0.2208%
[1]; 1.25 uM
  Toxicity %: 18.45%
[1]; 2.5 uM
  Toxicity %: 57.62%
[1]; 5 uM
  Toxicity %: 80.53%
[1]; 10 uM
  Toxicity %: 88.17%
[2]; HT29, 0.078 uM
  Toxicity %: 0.5016%
[2]; HT29, 0.156 uM
  Toxicity %: 0.912%
[2]; HT29, 0.312 uM
  Toxicity %: 0.228%
[2]; HT29, 0.625 uM
  Toxicity %: 26.95%
[2]; HT29, 1.25 uM
  Toxicity %: 66.94%
[2]; HT29, 2.5 uM
  Toxicity %: 89.83%
[2]; HT29, 5 uM
  Toxicity %: 97.45%
[2]; HT29, 10 uM
  Toxicity %: 97.58%
[2]; Homo sapiens, HT-29, HT29, 0.078 uM
  viability at 0.078 µM: 99.5%
[2]; Homo sapiens, HT-29, HT29, 0.156 uM
  viability at 0.156 µM: 99.1%
[2]; [7]
  viability at 0.312 µM: 99.8%
[2]; [8]
  viability at 0.625 µM: 73.1%
[2]; [9]
  viability at 1.25 µM: 33.1%
[2]; [10]
  viability at 2.5 µM: 10.2%
[2]; [11]
  viability at 5 µM: 2.55%
[2]; [12]
  viability at 10 µM: 2.42%
[2]; Homo sapiens, HT-29
  IC50: 0.99 ± 0.02 µM
[5]; mean of three independent experiments ± SD, read-out: In Vitro Cytotoxicity against Normal Cells IC50 Value, Vero Cells
  IC50: 10.2 ± 0.3 µM
[5]; Vero, 0.312 uM
  viability at 0.312 µM: 99.7%
[5]; Vero, 0.625 uM
  viability at 0.625 µM: 100%
[5]; Vero, 1.25 uM
  viability at 1.25 µM: 99.3%
[5]; Vero, 2.5 uM
  viability at 2.5 µM: 97.3%
[5]; Vero, 5 uM
  viability at 5 µM: 87.6%
[5]; Vero, 10 uM
  viability at 10 µM: 50.2%
[6]; 0.312 uM
  Toxicity %: 0.3046%
[6]; 0.625 uM
  Toxicity %: 0.04352%
[6]; 1.25 uM
  Toxicity %: 0.7398%
[6]; 2.5 uM
  Toxicity %: 2.698%
[6]; 5 uM
  Toxicity %: 12.45%
[6]; 10 uM
  Toxicity %: 49.78%
[3]; 0.078 uM
  viability at 0.078 µM: 99.9%
[3]; 0.156 uM
  viability at 0.156 µM: 99.9%
[3]
  viability at 0.312 µM: 98.9%
  viability at 0.625 µM: 96.9%
  viability at 1.25 µM: 47.5%
  viability at 2.5 µM: 31.5%
  viability at 5 µM: 8.38%
  viability at 10 µM: 7.63%
[4]
  IC50: 1.22 ± 0.02 µM
[4]; 0.078 uM
  Toxicity %: 0.1004%
[4]; 0.156 uM
  Toxicity %: 0.0502%
[4]; 0.312 uM
  Toxicity %: 1.104%
[4]; 0.625 uM
  Toxicity %: 3.112%
[4]; 1.25 uM
  Toxicity %: 52.46%
[4]; 2.5 uM
  Toxicity %: 68.47%
[4]; 5 uM
  Toxicity %: 91.62%
[4]; 10 uM
  Toxicity %: 92.37%
